Active and inactive are the calls of the source.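 Rule for the calls: active = compounds reducing C. glabrata growth on glycerol with a fitted half-effect dose within twice the top tested dose; inconclusive = flat curve with moderate growth loss, or an unreliable fit; inactive = the rest.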
System: Candida glabrata growth in glycerol, OD600, 48 h
Experiment: Candida glabrata respiratory growth inhibition – glycerol medium, OD600, dry powder, dose response (AID 602186)
Conditions: not given

SMILES	AC50
CN1CCN(C(c2ccc(C(F)(F)F)cc2)c2ccc3cccnc3c2O)CC1 (centres undefined)	2.96 µM
Oc1c(C(c2ccc(Cl)cc2)N2CCCC2)ccc2cccnc12 (centres undefined)	13.4 µM
O=C(Nc1nc(-c2ccccn2)cs1)c1ccc(Cl)s1	1.38 µM
Oc1c(C(c2ccccc2Cl)N2CCCCC2)ccc2cccnc12 (centres undefined)	9.06 µM
O=C(Oc1c(Cl)cc(Cl)c2cccnc12)c1ccco1	0.617 µM
Cc1ccc(-c2nc3c(Cl)cc(Cl)cc3c(=O)n2O)cc1	1.39 µM
Cc1ccc(C(=O)Nc2nc(-c3ccccn3)cs2)cc1	3.28 µM
O=C(Nc1nc(-c2ccccn2)cs1)c1ccc(Br)s1	1.2 µM
C=CCNC(=S)N/N=C(\C)c1ccccn1	0.508 µM
Oc1c(CN2CCc3ccccc3C2)cc(Cl)c2cccnc12	13.6 µM
O=C(NNC(=S)Nc1ccc(Cl)c(Cl)c1)c1ccccn1	0.119 µM
O=C(Nc1nnc(-c2ccc3c(c2)CCCC3)o1)c1ccccc1	10.3 µM
O=C(Nc1nc(-c2ccccn2)cs1)c1ccccc1	11.5 µM
CCCC(=O)NC(c1cccs1)c1cc(Cl)c2cccnc2c1O (centres undefined)	2.14 µM
C/C(=N\NC(=O)c1cc2ccccc2cc1O)c1ccccn1	8.89 µM
CCOC(=O)N1C(=O)C2(CCCCC2)N(c2ccc(C)cc2)C1=S	0.141 µM

System: not listed separately
Experiment: as above
Conditions: Candida glabrata growth in glycerol, OD600, 48 h; at 19.5 µM (top of the series)

SMILES	activity change, negative = inhibition
NC(=O)c1cccc(C(=O)Nc2nc(-c3ccc4c(c3)CCCC4)cs2)c1	9.1% (inactive)
O=C(Nc1nnc(-c2ccc3c(c2)CCCC3)o1)c1ccc(Cl)cc1Cl	-18.1% (inactive)
COc1ccc(-c2nnc(NC(=O)c3ccc(S(=O)(=O)N4CCCc5ccccc54)cc3)o2)cc1	-21.8% (inactive)
Cc1ccc(C(=O)Nc2nnc(-c3ccccc3)o2)cc1C	5.05% (inactive)
O=C(Nc1nc(-c2ccccc2)cs1)c1ccc(Br)s1	-6.9% (inactive)
Cc1cc(C)n(-c2nc3ccccc3c(=O)n2OCC#N)n1	-19.2% (inactive)
O=C(Nc1nc(-c2ccc3c(c2)CCCC3)cs1)c1ccccc1	25.4% (inactive)

Same assay, conditions: Candida glabrata growth in glycerol, OD600, 48 h; at 23.5 µM (top of the series)

SMILES	activity change, negative = inhibition
Oc1c(CN2CCN(c3ccccc3)CC2)cc(Cl)c2cccnc12	-34.4% (inactive)

Reference: PubChem BioAssay AID602186 (Broad Institute, 2012)
